Data reported in patent US20250000881A1, “TREATMENT OF TREATMENT RESISTANT […] PSILOCYBIN” (COMPASS […], priority 2021, published 2025).

Tested on: adult subjects with TRD
Test: Phase 2b trial in TRD: safety, treatment emergent adverse events
Assay type: in vivo, human
Excerpt: Another objective was to evaluate the safety and tolerability of psilocybin in subjects with TRD based on AEs, changes in vital signs, and suicidal ideation/behaviour (measured using the Columbia-Suicide Severity Rating Scale [C-SSRS]) score at all visits.
Throughout the course of the study, all adverse events (AEs) were monitored and recorded and included the AE's description, start and end date, seriousness, severity, action taken, and relationship to the treatment. If AEs occurred, the first concern was the safety of the study subjects.
An AE can therefore be any unfavorable and unintended sign (including an abnormal laboratory finding, for example), symptom, or disease temporally associated with the use of a medicinal product, whether considered related to the medicinal product.
AEs were coded by Preferred Term (PT) using the Medical Dictionary for Regulatory Activities (MedDRA) classification. All reported AEs with onset or worsening after the administration of study medication were included in the analysis. The incidence of AEs was summarized by treatment group, and by severity and relationship to psilocybin. Serious AEs and AEs leading to withdrawal from the study will be tabulated.
A TEAE is defined as any AE that has an onset on or after the dose of psilocybin, or any pre-existing condition that has worsened on or after the dose of psilocybin.
The incidence of TEAEs and treatment-related AEs were summarized by maximum severity and most-related relationship to psilocybin by MedDRA primary system organ class and PT. The summary included the total number and percentage of subjects reporting an event.

## CN(C)CCc1c[nH]c2cccc(OP(=O)(O)O)c12 [COMP360, psilocybin]
1 mg (N = 79)
  Any TESAE, participants: 1 (1.3) n (%)
  TEAE Abdominal pain upper, participants: 1 (1.3) n (%)
  TEAE Anxiety, participants: 3 (3.8) n (%)
  TEAE Back pain, participants: 3 (3.8) n (%)
  TEAE Depressed mood, participants: 4 (5.1) n (%)
  TEAE Depression, participants: 5 (6.3) n (%)
  TEAE Dizziness, participants: 1 (1.3) n (%)
  TEAE Euphoric mood, participants: 4 (5.1) n (%)
  TEAE Fatigue, participants: 7 (8.9) n (%)
  TEAE Headache, participants: 20 (25.3) n (%)
  TEAE Insomnia, participants: 14 (17.7) n (%)
  TEAE Irritability, participants: 1 (1.3) n (%)
  TEAE Mood altered, participants: 1 (1.3) n (%)
  TEAE Myalgia, participants: 1 (1.3) n (%)
  TEAE Nausea, participants: 4 (5.1) n (%)
  TEAE Panic reaction, participants: 1 (1.3) n (%)
  TEAE Paraesthesia, participants: 1 (1.3) n (%)
  TEAE Suicidal ideation, participants: 4 (5.1) n (%)
  TEAE Thinking abnormal, participants: 0 n (%)
  TESAE Adjustment disorder with anxiety, participants: 0 n (%)
  TESAE Adjustment disorder with mixed anxiety and depressed mood, participants: 0 n (%)
  TESAE Depression, participants: 0 n (%)
  TESAE Drug withdrawal syndrome*, participants: 0 n (%)
  TESAE Hospitalisation, participants: 0 n (%)
  TESAE Intentional self-injury, participants: 1 (1.3) n (%)
  TESAE Suicidal behaviour, participants: 0 n (%)
  TESAE Suicidal ideation, participants: 0 n (%)
1 mg group
  Patients with TEAEs of suicidal ideation, suicidal behaviour and intentional self-injury: four
  Patients with TESAEs of suicidal ideation, suicidal behaviour and intentional self-injury: one
10 mg (N = 75)
  Any TESAE, participants: 6 (8.0) n (%)
  TEAE Abdominal pain upper, participants: 2 (2.7) n (%)
  TEAE Anxiety, participants: 13 (17.3) n (%)
  TEAE Back pain, participants: 0 n (%)
  TEAE Depressed mood, participants: 5 (6.7) n (%)
  TEAE Depression, participants: 6 (8.0) n (%)
  TEAE Dizziness, participants: 1 (1.3) n (%)
  TEAE Euphoric mood, participants: 5 (6.7) n (%)
  TEAE Fatigue, participants: 5 (6.7) n (%)
  TEAE Headache, participants: 16 (21.3) n (%)
  TEAE Insomnia, participants: 11 (14.7) n (%)
  TEAE Irritability, participants: 2 (2.7) n (%)
  TEAE Mood altered, participants: 3 (4.0) n (%)
  TEAE Myalgia, participants: 2 (2.7) n (%)
  TEAE Nausea, participants: 7 (9.3) n (%)
  TEAE Panic reaction, participants: 1 (1.3) n (%)
  TEAE Paraesthesia, participants: 4 (5.3) n (%)
  TEAE Suicidal ideation, participants: 5 (6.7) n (%)
  TEAE Thinking abnormal, participants: 4 (5.3) n (%)
  TESAE Adjustment disorder with anxiety, participants: 0 n (%)
  TESAE Adjustment disorder with mixed anxiety and depressed mood, participants: 0 n (%)
  TESAE Depression, participants: 1 (1.3) n (%)
  TESAE Drug withdrawal syndrome*, participants: 0 n (%)
  TESAE Hospitalisation, participants: 1 (1.3) n (%)
  TESAE Intentional self-injury, participants: 2 (2.7) n (%)
  TESAE Suicidal behaviour, participants: 0 n (%)
  TESAE Suicidal ideation, participants: 2 (2.7) n (%)
10 mg group
  Patients with TEAEs of suicidal ideation, suicidal behaviour and intentional self-injury: six
  Patients with TESAEs of suicidal ideation, suicidal behaviour and intentional self-injury: four
25 mg (N = 79)
  Any TESAE, participants: 5 (6.3) n (%)
  TEAE Abdominal pain upper, participants: 4 (5.1) n (%)
  TEAE Anxiety, participants: 7 (8.9) n (%)
  TEAE Back pain, participants: 6 (7.6) n (%)
  TEAE Depressed mood, participants: 3 (3.8) n (%)
  TEAE Depression, participants: 4 (5.1) n (%)
  TEAE Dizziness, participants: 6 (7.6) n (%)
  TEAE Euphoric mood, participants: 4 (5.1) n (%)
  TEAE Fatigue, participants: 12 (15.2) n (%)
  TEAE Headache, participants: 27 (34.2) n (%)
  TEAE Insomnia, participants: 8 (10.1) n (%)
  TEAE Irritability, participants: 4 (5.1) n (%)
  TEAE Mood altered, participants: 7 (8.9) n (%)
  TEAE Myalgia, participants: 5 (6.3) n (%)
  TEAE Nausea, participants: 18 (22.8) n (%)
  TEAE Panic reaction, participants: 4 (5.1) n (%)
  TEAE Paraesthesia, participants: 3 (3.8) n (%)
  TEAE Suicidal ideation, participants: 5 (6.3) n (%)
  TEAE Thinking abnormal, participants: 0 n (%)
  TESAE Adjustment disorder with anxiety, participants: 1 (1.3) n (%)
  TESAE Adjustment disorder with mixed anxiety and depressed mood, participants: 1 (1.3) n (%)
  TESAE Depression, participants: 0 n (%)
  TESAE Drug withdrawal syndrome*, participants: 1 (1.3) n (%)
  TESAE Hospitalisation, participants: 0 n (%)
  TESAE Intentional self-injury, participants: 2 (2.5) n (%)
  TESAE Suicidal behaviour, participants: 3 (3.8) n (%)
  TESAE Suicidal ideation, participants: 2 (2.5) n (%)
25 mg group
  Patients with TEAEs of suicidal ideation, suicidal behaviour and intentional self-injury: seven
  Patients with TESAEs of suicidal ideation, suicidal behaviour and intentional self-injury: four
25 mg, 10 mg, 1 mg groups, blinded remote rater
  MADRS item 10 (suicidality) scores post-administration, comparison of groups: no difference between the three groups
Overall (N = 233)
  Any TESAE, participants: 12 (5.2) n (%)
  TEAE Abdominal pain upper, participants: 7 (3.0) n (%)
  TEAE Anxiety, participants: 23 (9.9) n (%)
  TEAE Back pain, participants: 9 (3.9) n (%)
  TEAE Depressed mood, participants: 12 (5.2) n (%)
  TEAE Depression, participants: 15 (6.4) n (%)
  TEAE Dizziness, participants: 8 (3.4) n (%)
  TEAE Euphoric mood, participants: 13 (5.6) n (%)
  TEAE Fatigue, participants: 24 (10.3) n (%)
  TEAE Headache, participants: 63 (27.0) n (%)
  TEAE Insomnia, participants: 33 (14.2) n (%)
  TEAE Irritability, participants: 7 (3.0) n (%)
  TEAE Mood altered, participants: 11 (4.7) n (%)
  TEAE Myalgia, participants: 8 (3.4) n (%)
  TEAE Nausea, participants: 29 (12.4) n (%)
  TEAE Panic reaction, participants: 6 (2.6) n (%)
  TEAE Paraesthesia, participants: 8 (3.4) n (%)
  TEAE Suicidal ideation, participants: 14 (6.0) n (%)
  TEAE Thinking abnormal, participants: 4 (1.7) n (%)
  TESAE Adjustment disorder with anxiety, participants: 1 (0.4) n (%)
  TESAE Adjustment disorder with mixed anxiety and depressed mood, participants: 1 (0.4) n (%)
  TESAE Depression, participants: 1 (0.4) n (%)
  TESAE Drug withdrawal syndrome*, participants: 1 (0.4) n (%)
  TESAE Hospitalisation, participants: 1 (0.4) n (%)
  TESAE Intentional self-injury, participants: 5 (2.1) n (%)
  TESAE Suicidal behaviour, participants: 3 (1.3) n (%)
  TESAE Suicidal ideation, participants: 4 (1.7) n (%)
All groups
  Patients with TEAEs of suicidal ideation, suicidal behaviour and intentional self-injury: 17 patients
  Patients with TESAEs of suicidal ideation, suicidal behaviour and intentional self-injury: nine
  TEAEs being mild or moderate in severity: more than 90%
  TEAEs occurring on the day of administration that resolved on the same day or the day after: 77.4%
  TEAEs of suicidal ideation, suicidal behaviour and intentional self-injury: 27 events
  TESAEs of suicidal ideation, suicidal behaviour and intentional self-injury: 14 events
  TESAEs of suicidality/self-injury that occurred at least one week after the session: 10 events out of 14
All groups (233 patients)
  Participants reported at least one TEAE: 179 participants
All patients reporting these events were non responders at event onset
  Timing of suicidal behaviours after the psilocybin therapy session: occurred at least one month after the psilocybin therapy session
Single dose 1, 10 or 25 mg
  Tolerability: generally well tolerated
Started on the day of administration
  TEAEs involving hallucination (25 mg and 10 mg groups only) and illusion (all groups): onset and resolution: resolved on the same day
